Data published in US20250042857A1, “SOS1 Inhibitor With Pyrido-Fused Six-Membered Ring Structure” (HAIHE BIOPHARMA CO., LTD., priority 2021, published 2025).

Key:
KRAS-G12C/SOS1 = KRAS-G12C/SOS1 (Homo sapiens (Human), UniProt Q07889); assay: Detection of inhibitory effects of compounds on KRAS-G12C/SOS1 (KRASG12C/SOS binding kit, HTRF); conditions: Em665/620, read-out: IC50, inhibitory activity on interaction of KRAS-G12C/SOS1
Method in brief: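 HTRF binding of Tag2-KRAS-G12C to Tag1-SOS1 with compounds (10-point 3-fold dilution from 5,000 nM) for 15 min at room temperature, then anti-Tag1-Tb and anti-Tag2-XL665 for 120 min at 4° C. Em665/620 read; inhibition normalised to control wells, IC50 from variable-slope log(inhibitor) fit.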

p-ERK of PC-9 cells = assay: p-ERK HTRF assay in PC-9 cells; type: cell-based; conditions: Homo sapiens, PC-9, 1 h, PC-9 lung cancer cells, 1 hour treatment, read-out: IC50, inhibitory activity on p-ERK of PC-9 cells
Method in brief: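 PC-9 lung cancer cells plated overnight, then exposed 1 h at 37 °C to a 10-point compound series (10,000–[…] nM final, 0.1% DMSO). After 1 h lysis, phospho-ERK1/2 (Thr202/Tyr204) measured by HTRF at 665/615 nm. Percent inhibition calculated from max and min signals.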

KRAS-G12C/SOS1, sequence (Q07889 whole entry, stated change not applied): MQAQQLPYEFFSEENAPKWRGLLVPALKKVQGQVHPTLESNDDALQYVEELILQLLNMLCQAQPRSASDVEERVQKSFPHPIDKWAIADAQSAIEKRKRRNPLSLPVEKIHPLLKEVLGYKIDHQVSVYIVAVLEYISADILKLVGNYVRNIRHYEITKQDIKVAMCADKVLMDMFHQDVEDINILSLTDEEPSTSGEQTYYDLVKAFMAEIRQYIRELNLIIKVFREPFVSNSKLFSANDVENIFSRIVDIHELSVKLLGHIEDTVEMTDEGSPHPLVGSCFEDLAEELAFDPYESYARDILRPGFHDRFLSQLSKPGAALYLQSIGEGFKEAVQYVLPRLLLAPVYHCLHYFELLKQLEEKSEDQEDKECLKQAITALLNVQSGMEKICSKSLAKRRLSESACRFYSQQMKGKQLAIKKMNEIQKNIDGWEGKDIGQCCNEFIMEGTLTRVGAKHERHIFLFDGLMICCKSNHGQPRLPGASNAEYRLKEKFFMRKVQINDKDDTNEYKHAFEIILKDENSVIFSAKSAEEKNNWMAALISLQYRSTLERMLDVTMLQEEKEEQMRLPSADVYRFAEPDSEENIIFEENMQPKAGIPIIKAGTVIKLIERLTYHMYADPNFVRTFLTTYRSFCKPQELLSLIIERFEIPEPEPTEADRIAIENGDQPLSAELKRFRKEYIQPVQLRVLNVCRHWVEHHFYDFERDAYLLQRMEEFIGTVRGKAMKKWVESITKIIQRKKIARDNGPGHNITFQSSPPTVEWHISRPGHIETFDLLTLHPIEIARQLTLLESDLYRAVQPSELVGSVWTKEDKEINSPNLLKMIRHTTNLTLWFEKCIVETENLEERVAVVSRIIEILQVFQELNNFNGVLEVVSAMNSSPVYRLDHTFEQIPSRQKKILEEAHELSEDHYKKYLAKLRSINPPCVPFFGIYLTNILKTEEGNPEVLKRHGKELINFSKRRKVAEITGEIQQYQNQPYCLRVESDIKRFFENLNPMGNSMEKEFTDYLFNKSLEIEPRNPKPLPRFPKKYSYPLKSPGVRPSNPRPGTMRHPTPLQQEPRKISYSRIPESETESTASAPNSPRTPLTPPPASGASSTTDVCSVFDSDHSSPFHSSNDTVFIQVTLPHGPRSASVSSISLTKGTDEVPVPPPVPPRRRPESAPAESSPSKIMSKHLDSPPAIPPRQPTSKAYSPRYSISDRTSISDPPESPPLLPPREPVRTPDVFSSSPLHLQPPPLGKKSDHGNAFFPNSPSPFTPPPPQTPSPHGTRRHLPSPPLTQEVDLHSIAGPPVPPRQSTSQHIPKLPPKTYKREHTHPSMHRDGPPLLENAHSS

| SMILES | IC50 (KRAS-G12C/SOS1) [nM] | IC50 (p-ERK of PC-9 cells) [nM] |
| --- | --- | --- |
| C[C@@H](Nc1ccnc2cnc(C3(O)CCOCC3)cc12)c1cccc(C(F)F)c1F [Compound B-103] | ≤ 100 | 300 to 1000 |
| COC1(c2cc3c(N[C@H](C)c4cccc(C(F)F)c4F)ccnc3cn2)CCOCC1 [Compound B-104] | ≤ 100 | 300 to 1000 |
| C[C@@H](Nc1ccnc2cnc(-c3ccc(=O)n(C)c3)cc12)c1cccc(C(F)F)c1F [Compound B-107] | ≤ 100 | ≤ 300 |
| C[C@@H](Nc1ccnc2cnc(-c3ccn(C)c(=O)c3)cc12)c1cccc(C(F)F)c1F [Compound B-108] | ≤ 100 | ≤ 300 |
| CC(=O)N1CC=C(c2cc3c(N[C@H](C)c4cccc(C(F)F)c4F)ccnc3cn2)C1 [Compound B-109] | ≤ 100 | ≤ 300 |
| CC(=O)N1CCC(c2cc3c(N[C@H](C)c4cccc(C(F)F)c4F)ccnc3cn2)C1 (stereo partly drawn) [Compound B-110] | ≤ 100 | ≤ 300 |
| CC(=O)N1CCN(c2cc3c(N[C@H](C)c4cccc(C(F)F)c4F)c(F)cnc3cn2)CC1 [Compound B-111] | ≤ 100 | ≤ 300 |
| CC(=O)N1CCC(O)(c2cc3c(N[C@H](C)c4cccc(C(F)(F)F)c4F)ccnc3cn2)CC1 [Compound B-112] | ≤ 100 | ≤ 300 |
| C[C@@H](Nc1ccnc2cnc(C3(O)CCN(C(=O)CO)CC3)cc12)c1cccc(C(F)F)c1F [Compound B-113] | ≤ 100 | ≤ 300 |
| COCC(=O)N1CCC(O)(c2cc3c(N[C@H](C)c4cccc(C(F)F)c4F)ccnc3cn2)CC1 [Compound B-114] | ≤ 100 | ≤ 300 |
| C[C@@H](Nc1ccnc2cnc(C3(O)CCN(C(=O)CC#N)CC3)cc12)c1cccc(C(F)F)c1F [Compound B-116] | ≤ 100 | ≤ 300 |
| C[C@@H](Nc1ccnc2cnc(C3(O)CCN(CCO)CC3)cc12)c1cccc(C(F)F)c1F [Compound B-117] | ≤ 100 | 300 to 1000 |
| C[C@@H](Nc1ccnc2cnc(C3(O)CCN(C(=O)CO)CC3)cc12)c1cccc(C(F)(F)F)c1F [Compound B-118] | ≤ 100 | ≤ 300 |
| C[C@H](O)C(=O)N1CCC(O)(c2cc3c(N[C@H](C)c4cccc(C(F)F)c4F)ccnc3cn2)CC1 [Compound B-119] | ≤ 100 | ≤ 300 |
| C[C@@H](Nc1ccnc2cnc(C3(O)CCN(C(=O)C(C)(C)O)CC3)cc12)c1cccc(C(F)F)c1F [Compound B-121] | ≤ 100 | ≤ 300 |
| CNCC(=O)N1CCC(O)(c2cc3c(N[C@H](C)c4cccc(C(F)F)c4F)ccnc3cn2)CC1 [Compound B-122] | ≤ 100 | > 1000 |
| C[C@@H](Nc1c(F)cnc2cnc(C3(O)CCN(C(=O)CO)CC3)cc12)c1cccc(C(F)F)c1F [Compound B-123] | ≤ 100 | ≤ 300 |
| C[C@H](O)C(=O)N1CCC(O)(c2cc3c(N[C@H](C)c4cccc(C(F)F)c4F)c(F)cnc3cn2)CC1 [Compound B-124] | ≤ 100 | ≤ 300 |
| C[C@H](O)C(=O)N1CCC(O)(c2cc3c(N[C@H](C)c4cccc(C(C)(F)F)c4F)ccnc3cn2)CC1 [Compound B-125] | ≤ 100 | ≤ 300 |
| C[C@H](O)C(=O)N1CCC(O)(c2cc3c(N[C@H](C)c4cccc(C(F)(F)F)c4F)ccnc3cn2)CC1 [Compound B-126] | ≤ 100 | ≤ 300 |
| C[C@@H](Nc1ccnc2cnc(C3(O)CCN(C(=O)C4(C#N)CC4)CC3)cc12)c1cccc(C(F)F)c1F [Compound B-127] | ≤ 100 | ≤ 300 |
| C[C@@H](Nc1ccnc2cnc(C3(O)CCN(C(=O)C4CC4)CC3)cc12)c1cccc(C(F)F)c1F [Compound B-128] | ≤ 100 | ≤ 300 |
| C[C@@H](Nc1ccnc2cnc(C3(O)CCN(C(=O)c4ccccn4)CC3)cc12)c1cccc(C(F)F)c1F [Compound B-129] | ≤ 100 | 300 to 1000 |
| C[C@@H](Nc1ccnc2cnc(C3(O)CCN(C(=O)c4cccnc4)CC3)cc12)c1cccc(C(F)F)c1F [Compound B-130] | ≤ 100 | 300 to 1000 |
| C[C@@H](Nc1ccnc2cnc(C3(O)CCN(C(=O)c4ccncc4)CC3)cc12)c1cccc(C(F)F)c1F [Compound B-131] | ≤ 100 | ≤ 300 |
| C[C@@H](Nc1ccnc2cnc(C3(O)CCN(C(=O)C4COC4)CC3)cc12)c1cccc(C(F)F)c1F [Compound B-132] | ≤ 100 | ≤ 300 |
| C[C@@H](Nc1ccnc2cnc(C3(O)CCN(C(=O)[C@@H]4CCOC4)CC3)cc12)c1cccc(C(F)F)c1F [Compound B-133] | ≤ 100 | ≤ 300 |

| SMILES | IC50 (KRAS-G12C/SOS1) [nM] | IC50 (p-ERK of PC-9 cells) [nM] |
| --- | --- | --- |
| C[C@@H](Nc1ccnc2cnc(C3(O)CCN(C(=O)[C@H]4CCOC4)CC3)cc12)c1cccc(C(F)F)c1F [Compound B-134] | ≤ 100 | ≤ 300 |
| C[C@@H](Nc1ccnc2cnc(C3(O)CCN(C(=O)C4CCOCC4)CC3)cc12)c1cccc(C(F)F)c1F [Compound B-135] | ≤ 100 | 300 to 1000 |
| C[C@@H](Nc1ccnc2cnc(C3(O)CCN(C(=O)[C@H]4CNCCO4)CC3)cc12)c1cccc(C(F)F)c1F [Compound B-136] | ≤ 100 | > 1000 |
| C[C@@H](Nc1ccnc2cnc(C3(O)CCN(C(=O)[C@@H]4CNCCO4)CC3)cc12)c1cccc(C(F)F)c1F [Compound B-137] | ≤ 100 | > 1000 |
| C[C@@H](Nc1ccnc2cnc(C3(O)CCN(C(=O)Cc4cccnc4)CC3)cc12)c1cccc(C(F)F)c1F [Compound B-138] | ≤ 100 | ≤ 300 |
| C[C@@H](Nc1ccnc2cnc(C3(O)CCN(C(=O)Cc4ccncc4)CC3)cc12)c1cccc(C(F)F)c1F [Compound B-139] | ≤ 100 | ≤ 300 |
| C[C@@H](Nc1ccnc2cnc(C3(O)CCN(C(=O)C[C@@H]4CCOC4)CC3)cc12)c1cccc(C(F)F)c1F [Compound B-140] | ≤ 100 | ≤ 300 |
| C[C@@H](Nc1ccnc2cnc(C3(O)CCN(C(=O)COC(F)F)CC3)cc12)c1cccc(C(F)F)c1F [Compound B-141] | ≤ 100 | ≤ 300 |
| C[C@@H](Nc1ccnc2cnc(C3(O)CCN(C(=O)[C@H]4C[C@H](O)CN4)CC3)cc12)c1cccc(C(F)F)c1F [Compound B-144] | ≤ 100 | > 1000 |
| C[C@@H](Nc1ccnc2cnc(C3(O)CCN(C(=O)[C@H]4C[C@@H](O)CN4)CC3)cc12)c1cccc(C(F)F)c1F [Compound B-145] | ≤ 100 | > 1000 |
| C[C@@H](Nc1ccnc2cnc(C3(O)CCN(C(=O)[C@H]4C[C@@H](O)CN4C)CC3)cc12)c1cccc(C(F)F)c1F [Compound B-147] | ≤ 100 | > 1000 |
| C[C@@H](Nc1ccnc2cnc(C3(O)CCN(C(=O)CN4CCOCC4)CC3)cc12)c1cccc(C(F)F)c1F [Compound B-148] | ≤ 100 | ≤ 300 |
| C[C@@H](Nc1ccnc2cnc(C3(O)CCN(C(=O)CN4CCC(O)CC4)CC3)cc12)c1cccc(C(F)F)c1F [Compound B-149] | ≤ 100 | > 1000 |
| C[C@@H](Nc1ccnc2cnc(C3(O)CCN(C(=O)CN4CC[C@@H](O)C4)CC3)cc12)c1cccc(C(F)F)c1F [Compound B-150] | ≤ 100 | > 1000 |
| C[C@@H](Nc1ccnc2cnc(C3(O)CCN(C(=O)CN4CC[C@H](O)C4)CC3)cc12)c1cccc(C(F)F)c1F [Compound B-151] | ≤ 100 | > 1000 |
| C[C@@H](Nc1ccnc2cnc(C3(O)CCN(C4COCC4O)CC3)cc12)c1cccc(C(F)F)c1F (stereo partly drawn) [Compound B-152] | ≤ 100 | 300 to 1000 |
| Cc1nnc(N2CCC(O)(c3cc4c(N[C@H](C)c5cccc(C(F)F)c5F)ccnc4cn3)CC2)o1 [Compound B-153] | ≤ 100 | 300 to 1000 |
| C[C@@H](Nc1ccnc2cnc(C3(O)CCN(c4ncc(C#N)cn4)CC3)cc12)c1cccc(C(F)F)c1F [Compound B-156] | ≤ 100 | ≤ 300 |
| C[C@@H](Nc1ccnc2cnc(C3(O)CCN(Cc4ccccn4)CC3)cc12)c1cccc(C(F)F)c1F [Compound B-159] | ≤ 100 | 300 to 1000 |
| C[C@@H](Nc1ccnc2cnc(C3(O)CCN(C(=O)N(C)C)CC3)cc12)c1cccc(C(F)F)c1F [Compound B-160] | ≤ 100 | ≤ 300 |
| C[C@@H](Nc1ccnc2cnc(C3(O)CCN(C(=O)N4CC[C@H](O)C4)CC3)cc12)c1cccc(C(F)F)c1F [Compound B-161] | ≤ 100 | 300 to 1000 |
| C[C@@H](Nc1ccnc2cnc(C3(O)CCN(C(=O)N4CC[C@@H](O)C4)CC3)cc12)c1cccc(C(F)F)c1F [Compound B-162] | ≤ 100 | 300 to 1000 |
| C[C@@H](Nc1ccnc2cnc(C3(O)CCN(C(=O)NCCO)CC3)cc12)c1cccc(C(F)F)c1F [Compound B-163] | ≤ 100 | ≤ 300 |
| C[C@@H](Nc1ccnc2cnc(C3(O)CCN(C(=O)N(C)CCO)CC3)cc12)c1cccc(C(F)F)c1F [Compound B-164] | ≤ 100 | ≤ 300 |
| CC(=O)N1C2CCC1CN(c1cc3c(N[C@H](C)c4cccc(C#N)c4F)ccnc3cn1)C2 [Compound B-165] | ≤ 100 | 300 to 1000 |
| C[C@@H](Nc1ccnc2cnc(C3(O)CCN(C(=O)CO)CC3)cc12)c1cccc(C#N)c1F [Compound B-167] | ≤ 100 | > 1000 |
| C[C@@H](Nc1ccnc2cnc(C3(O)CCN(CCO)CC3)cc12)c1cccc(C#N)c1F [Compound B-168] | 100 to 500 | > 1000 |
